# Laboratory results reported in patent US20130040935A1, “CYCLIC KETO-ENOLS FOR THERAPY” (BAYER INTELLECTUAL PROPERTY GMBH, priority 2010, published 2013).
# Read-outs that look alike come from different tables or passages of the source.
# Tests used:
# [1] = biological target: T1, human ACC1 (acetyl-coenzyme A carboxylase alpha transcript variant 1) (Homo sapiens, UniProt Q13085); experiment: Human ACC1 enzyme assay, Assay B1 (ADP-Glo); format: biochemical
# T1 construct: FLAG (C); made in house; host or cells: baculovirus-infected insect cells (Hi5)
# [2] = test system: MCF7; experiment: Cell proliferation assay (CellTiter-Glo, 96 h), MCF7; format: cell-based; settings: Homo sapiens
# Procedure: In accordance with the invention, the substances were tested in cell-based assays for the ability of the substances of inhibiting tumour cell proliferation after a 96-hour incubation with the substance. Cell viability was tested using the CellTiter-Glo® luminescent cell viability assay (Promega). The cells were sown at a density of 2000-5000 cells/well (depending on the cell line) in 100 μl growth medium on 96-well microtitre plates. For each cell line examined, cells were sown on a separate plate to determine the luminescence at t=0 hours and t=96 hours. After overnight incubation at 37° C., the luminescence values for the t=0 samples were determined. The dose plates for the t=96 hours points in time were treated with substances diluted with growth medium. The cells were then incubated at 37° C. for 96 hours, and the luminescence values for the t=96 hours sample were then determined. For data analysis, the t=0 values were subtracted from the t=96 hour values for treated and untreated samples. The differences in luminescence in percent between substance-treated samples and control values were used to determine the growth inhibition in percent.
# The substances were tested in the following cell lines which represent the stated indications in an exemplary manner: […]
# [3] = biological target: human ACC2 (acetyl-coenzyme A carboxylase 2) (Homo sapiens, UniProt O00763); experiment: Human ACC2 enzyme assay, Assay B2 (ADP-Glo);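 further: human ACC2 activity read as ADP product, detected by luciferase glow luminescence after residual ATP removal, enzyme near 2 ng/µl in linear range, detection steps at 22 °C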
# Procedure: The hACC2-inhibitory action of the substances of the present invention was measured in the hACC2 assay described in the paragraphs below.
# Essentially, the enzyme activity is measured by quantifying the adenosine diphosphate (ADP) formed as a byproduct of the enzyme reactions using the ADP-Glo™ detection system from Promega. In this test, initially the adenosine triphosphate (ATP) not consumed in the enzyme reaction is converted quantitatively with an adenylate cyclase (“ADP-GLO reagent”) into cAMP, the adenylate cyclase is then stopped and (“kinase detection reagent”) the ADP formed is subsequently converted into ATP, which is converted in a luciferase-based reaction into a glow luminescence signal.
# The concentration of the hACC2 was adapted to the respective activity of the enzyme and adjusted such that the assay operated in the linear range. Typical concentrations were in the range of 2 ng/μl. […] The amount of light emitted was taken as a measure for the amount of ADP formed and thus for the enzyme activity of the hACC2.
# [4] = Assay B1, read-out: ACC 1 (=B1) IC50
# [5] = MCF7, Table 7, 96-hour incubation
# [6] = MCF7, Table 9a, 96-hour incubation
# human ACC2 (acetyl-coenzyme A carboxylase 2), sequence (O00763 27-2458 limits assumed): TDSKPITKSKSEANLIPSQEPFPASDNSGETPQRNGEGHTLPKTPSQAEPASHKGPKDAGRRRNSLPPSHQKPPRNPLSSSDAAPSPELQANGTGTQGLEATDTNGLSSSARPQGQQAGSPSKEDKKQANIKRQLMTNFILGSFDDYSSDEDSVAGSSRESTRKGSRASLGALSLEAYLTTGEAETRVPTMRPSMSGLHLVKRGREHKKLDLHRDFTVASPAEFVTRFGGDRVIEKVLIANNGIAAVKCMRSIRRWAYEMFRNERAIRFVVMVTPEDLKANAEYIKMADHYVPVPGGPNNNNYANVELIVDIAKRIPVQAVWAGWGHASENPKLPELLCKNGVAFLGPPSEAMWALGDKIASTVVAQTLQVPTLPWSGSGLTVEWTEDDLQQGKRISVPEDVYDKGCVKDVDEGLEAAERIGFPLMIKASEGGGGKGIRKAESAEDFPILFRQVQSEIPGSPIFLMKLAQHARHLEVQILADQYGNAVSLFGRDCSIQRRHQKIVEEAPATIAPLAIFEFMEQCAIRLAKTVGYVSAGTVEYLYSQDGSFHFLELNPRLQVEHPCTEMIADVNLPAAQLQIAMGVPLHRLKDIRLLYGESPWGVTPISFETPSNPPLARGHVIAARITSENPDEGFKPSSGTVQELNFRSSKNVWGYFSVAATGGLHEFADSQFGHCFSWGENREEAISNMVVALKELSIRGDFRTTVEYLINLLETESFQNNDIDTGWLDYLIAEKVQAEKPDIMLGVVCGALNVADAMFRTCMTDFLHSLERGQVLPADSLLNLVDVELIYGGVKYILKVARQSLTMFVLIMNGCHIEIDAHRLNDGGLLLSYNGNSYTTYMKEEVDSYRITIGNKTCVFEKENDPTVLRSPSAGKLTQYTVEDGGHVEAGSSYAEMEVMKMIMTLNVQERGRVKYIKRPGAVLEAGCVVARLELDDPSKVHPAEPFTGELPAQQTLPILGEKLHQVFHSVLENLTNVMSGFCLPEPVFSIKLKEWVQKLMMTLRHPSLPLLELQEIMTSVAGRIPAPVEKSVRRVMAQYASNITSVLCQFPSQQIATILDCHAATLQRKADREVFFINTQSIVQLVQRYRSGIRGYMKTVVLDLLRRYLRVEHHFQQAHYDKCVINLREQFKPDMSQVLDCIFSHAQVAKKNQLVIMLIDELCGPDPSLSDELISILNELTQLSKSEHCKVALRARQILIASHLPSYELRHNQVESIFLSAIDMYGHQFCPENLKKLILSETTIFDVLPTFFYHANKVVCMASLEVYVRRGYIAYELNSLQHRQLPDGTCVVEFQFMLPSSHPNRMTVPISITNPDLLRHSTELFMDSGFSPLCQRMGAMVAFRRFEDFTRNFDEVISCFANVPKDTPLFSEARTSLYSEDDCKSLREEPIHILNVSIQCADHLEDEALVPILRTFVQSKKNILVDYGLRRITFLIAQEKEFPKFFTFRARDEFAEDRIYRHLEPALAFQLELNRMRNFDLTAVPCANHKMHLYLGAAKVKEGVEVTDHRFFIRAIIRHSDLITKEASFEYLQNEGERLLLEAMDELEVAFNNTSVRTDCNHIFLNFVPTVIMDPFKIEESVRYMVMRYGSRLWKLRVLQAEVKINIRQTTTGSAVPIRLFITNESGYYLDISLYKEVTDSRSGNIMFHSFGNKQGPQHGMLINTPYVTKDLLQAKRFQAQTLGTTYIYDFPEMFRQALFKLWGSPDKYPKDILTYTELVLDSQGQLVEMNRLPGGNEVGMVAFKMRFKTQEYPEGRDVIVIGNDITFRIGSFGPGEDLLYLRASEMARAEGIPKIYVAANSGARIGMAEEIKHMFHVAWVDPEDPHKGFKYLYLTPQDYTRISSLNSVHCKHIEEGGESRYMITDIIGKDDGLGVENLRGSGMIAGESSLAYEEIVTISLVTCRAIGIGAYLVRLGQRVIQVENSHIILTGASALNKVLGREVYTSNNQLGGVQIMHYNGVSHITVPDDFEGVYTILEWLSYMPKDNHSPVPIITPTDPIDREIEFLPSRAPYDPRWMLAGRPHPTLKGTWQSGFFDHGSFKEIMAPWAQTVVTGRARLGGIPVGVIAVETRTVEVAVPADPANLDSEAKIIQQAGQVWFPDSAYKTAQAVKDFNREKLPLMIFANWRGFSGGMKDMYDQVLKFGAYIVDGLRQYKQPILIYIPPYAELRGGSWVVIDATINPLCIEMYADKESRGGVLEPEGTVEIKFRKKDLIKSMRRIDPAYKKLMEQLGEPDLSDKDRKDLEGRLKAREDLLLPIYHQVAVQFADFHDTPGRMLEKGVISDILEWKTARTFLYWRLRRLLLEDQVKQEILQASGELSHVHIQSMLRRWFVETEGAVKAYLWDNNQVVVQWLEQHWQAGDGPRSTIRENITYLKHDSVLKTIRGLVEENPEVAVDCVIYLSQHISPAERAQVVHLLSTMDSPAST
SMILES,"IC50 [1, 4] [nM]","IC50 [2, 5] [nM]",IC50 [3] [nM],IC50 [1] [nM],IC50 ([2]; MCF7 cells) [nM],"IC50 [2, 6] [nM]"
"Cc1ccc(-c2ccc(Cl)cc2)cc1C1=C(O)[C@@]2(CC[C@H](OCC(C)C)C2)NC1=O (relative stereo) [1-49, rel-(5R,7R)-3-(4′-chloro-4-methylbiphenyl-3-yl)-4-hydroxy-7-(2-methylpropoxy)-1-azaspiro[4.4]non-3-en-2-one]",10600,640,> 20000,–,–,–
"Cc1ccc(-c2ccc(Cl)cc2)c(C)c1C1=C(O)C2(CCC(C)CC2)NC1=O (centres unmarked) [1-4, 3-(4′-chloro-2,4-dimethylbiphenyl-3-yl)-4-hydroxy-8-methyl-1-azaspiro[4.5]dec-3-en-2-one]",357,54,558,–,–,–
"Cc1cc(C)c(-c2ccc(Cl)cc2)cc1C1=C(O)C2(CCCOC2)NC1=O (centres unmarked) [1-8, 3-(4′-chloro-4,6-dimethylbiphenyl-3-yl)-4-hydroxy-7-oxa-1-azaspiro[4.5]dec-3-en-2-one]",5810,191,> 20000,–,–,–
"COC1CCC2(CC1)NC(=O)C(c1c(C)cc(C)c(-c3ccc(Cl)cc3)c1C)=C2O (centres unmarked) [1-9, 3-(4′-chloro-2,4,6-trimethylbiphenyl-3-yl)-4-hydroxy-8-methoxy-1-azaspiro[4.5]dec-3-en-2-one]",–,287,276,11400,–,–
"Cc1ccc(-c2ccc(Cl)cc2)c(C)c1C1=C(O)C2(CCCOC2)NC1=O (centres unmarked) [1-10, 3-(4′-chloro-2,4-dimethylbiphenyl-3-yl)-4-hydroxy-7-oxa-1-azaspiro[4.5]dec-3-en-2-one]",–,1300,9460,500,–,–
"Cc1ccc(-c2ccc(C(F)(F)F)cc2)cc1C1=C(O)C2(CCCCC2)NC1=O [1-12, 4-hydroxy-3-[4 methyl-4′-(trifluoromethyl)biphenyl-3-yl]-1-azaspiro[4.5]dec-3-en-2-one]",871,322,> 20000,–,–,–
"Cc1ccc(-c2ccc(C)c(C3=C(O)C4(CCCCC4)NC3=O)c2)cc1 [1-13, 3-(4,4′-dimethylbiphenyl-3-yl)-4-hydroxy-1-azaspiro[4.5]dec-3-en-2-one]",216,410,> 20000,–,–,–
"Cc1ccc(-c2ccc(Cl)cc2)cc1C1=C(O)C2CSCCN2C1=O (centres unmarked) [1-21, 7-(4′-chloro-4-methylbiphenyl-3-yl)-8-hydroxy-1,3,4,8a-tetrahydro-6H-pyrrolo[2,1-c][1,4]thiazin-6-one]",–,392,10300,630,–,–
"Cc1ccc(-c2ccc(Cl)cc2)cc1C1=C(O)CN(C2CCCCC2)C1=O [1-22, 3-(4′-chloro-4-methylbiphenyl-3-yl)-1-cyclohexyl-4-hydroxy-1,5-dihydro-2H-pyrrol-2-one]",2680,436,16300,–,–,–
"Cc1ccc(-c2ccc(Cl)cc2)cc1C1=C(O)C2(CCCCCCC2)NC1=O [1-23, 3-(4′-chloro-4-methylbiphenyl-3-yl)-4-hydroxy-1-azaspiro[4.7]dodec-3-en-2-one]",459,262,2330,–,–,–
"Cc1ccc(-c2ccc(Cl)cc2)cc1C1=C(O)C2(CCCCCC2)NC1=O [1-26, 3-(4′-chloro-4-methylbiphenyl-3-yl)-4-hydroxy-1-azaspiro[4.6]undec-3-en-2-one]",367,188,3090,–,–,–
"Cc1ccc(-c2ccc(F)cc2)cc1C1=C(O)C2(CCC(OCC(F)(F)F)CC2)NC1=O (centres unmarked) [1-32, 3-(4′-fluoro-4-methylbiphenyl-3-yl)-4-hydroxy-8-(2,2,2-trifluoroethoxy)-1-azaspiro[4.5]dec-3-en-2-one]",516,107,19000,–,–,–
"Cc1ccc(-c2ccc(Cl)cc2)c(C)c1C1=C(O)C2(CCC3(CCCO3)CC2)NC1=O (centres unmarked) [1-34, 11-(4′-chloro-2,4-dimethylbiphenyl-3-yl)-12-hydroxy-1-oxa-9-azadispiro[4.2.4.2]tetradec-11-en-10-one]",297,112,11400,–,–,–
"CO[C@H]1CC[C@]2(CC1)NC(=O)C(c1c(C)cc(C)c(-c3ccc(F)cc3)c1C)=C2O [1-42, (5s,8s)-3-(4′-fluoro-2,4,6-trimethylbiphenyl-3-yl)-4-hydroxy-8-methoxy-1-azaspiro[4.5]dec-3-en-2-one]",–,1280,–,–,–,–
"CO[C@H]1CC[C@]2(CC1)NC(=O)C(c1cc(-c3ccc(F)c(Cl)c3)ccc1C)=C2O [1-43, (5s,8s)-3-(3′-chloro-4′-fluoro-4-methylbiphenyl-3-yl)-4-hydroxy-8-methoxy-1-azaspiro[4.5]dec-3-en-2-one]",4930,1220,> 20000,–,–,–
"CO[C@H]1CC[C@]2(CC1)NC(=O)C(c1c(C)ccc(-c3ccc(F)cc3)c1C)=C2O [1-45, (5s,8s)-3-(4′-fluoro-2,4-dimethylbiphenyl-3-yl)-4-hydroxy-8-methoxy-1-azaspiro[4.5]dec-3-en-2-one]",–,626,8830,701,–,–

SMILES,"IC50 [1, 4] [nM]","IC50 [2, 5] [nM]",IC50 [3] [nM],IC50 [1] [nM],IC50 ([2]; MCF7 cells) [nM],"IC50 [2, 6] [nM]"
"COC1CCC2(C1)NC(=O)C(c1c(C)ccc(-c3ccc(Cl)cc3)c1C)=C2O (centres unmarked) [1-48, 3-(4′-chloro-2,4-dimethylbiphenyl-3-yl)-4-hydroxy-7-methoxy-1-azaspiro[4.4]non-3-en-2-one]",–,852,10400,1560,–,–
"COCC1CCCC2(C1)NC(=O)C(c1cc(-c3ccc(Cl)cc3)ccc1C)=C2O (centres unmarked) [1-51, 3-(4′-chloro-4-methylbiphenyl-3-yl)-4-hydroxy-7-(methoxymethyl)-1-azaspiro[4.5]dec-3-en-2-one]",–,253,5450,415,–,–
"COCC1CCCC2(C1)NC(=O)C(c1cc(-c3ccc(Cl)cc3)ccc1Cl)=C2O (centres unmarked) [1-52, 3-(4,4′-dichlorobiphenyl-3-yl)-4-hydroxy-7-(methoxymethyl)-1-azaspiro[4.5]dec-3-en-2-one]",–,739,16000,1790,–,–
"COCCC1CCC2(CC1)NC(=O)C(c1c(C)ccc(-c3ccc(Cl)cc3)c1C)=C2O (centres unmarked) [1-57, 3-(4′-chloro-2,4-dimethylbiphenyl-3-yl)-4-hydroxy-8-(2-methoxyethyl)-1-azaspiro[4.5]dec-3-en-2-one]",–,250,1680,1290,–,–
"COC1CCC2(CC1)OC(=O)C(c1c(C)ccc(-c3ccc(Cl)cc3)c1C)=C2O (centres unmarked) [2-34, 3-(4′-chloro-2,4-dimethylbiphenyl-3-yl)-4-hydroxy-8-methoxy-1-oxaspiro[4.5]dec-3-en-2-one]",–,–,–,–,429,–
"Cc1ccc(-c2ccc(Cl)cc2)cc1C1=C(O)C2(CCCCC2)SC1=O [3-2, 3-(4′-chloro-4-methylbiphenyl-3-yl)-4-hydroxy-1-thiaspiro[4.5]dec-3-en-2-one]",–,–,–,–,–,461
"Cc1ccc(-c2ccc(Cl)cc2)cc1C1=C(O)CC2(CCCCC2)CC1=O [7-2, 3-(4′-chloro-4-methylbiphenyl-3-yl)-4-hydroxyspiro[5.5]undec-3-en-2-one]",501,–,–,–,–,1210
"Cc1ccc(-c2ccc(Cl)cc2)cc1C1=C(O)CC(C)(C)CC1=O [7-5, 2-(4′-chloro-4-methylbiphenyl-3-yl)-3-hydroxy-5,5-dimethylcyclohex-2-en-1-one]",–,–,–,906,–,992
"O=C1C(c2cc(-c3ccc(Cl)cc3)ccc2Cl)C(=O)N2CCCCN12 [8-2, 2-(4,4′-dichlorobiphenyl-3-yl)tetrahydro-1H-pyrazolo[1,2-a]pyridazine-1,3(2H)-dione]",–,–,–,401,–,878
"Cc1ccc(-c2ccc(Cl)cc2)c(C)c1C1C(=O)N2CCOCCN2C1=O [8-8, 8-(4′-chloro-2,4-dimethylbiphenyl-3-yl)tetrahydro-7H-pyrazolo[1,2-d][1,4,5]oxadiazepine-7,9(8H)-dione]",–,–,> 20000,1310,–,–
"Cc1ccc(-c2ccc(Cl)cc2)cc1C1=C(O)CC(C)(C)NC1=O [9-1, 3-(4′-chloro-4-methylbiphenyl-3-yl)-4-hydroxy-6,6-dimethyl-5,6-dihydropyridin-2(1H)-one]",3760,–,–,–,1260,–
"Cc1ccc(-c2ccc(Cl)cc2)cc1C1=C(O)CC(C)(C)N(C)C1=O [9-4, 3-(4′-chloro-4-methylbiphenyl-3-yl)-4-hydroxy-1,6,6-trimethyl-5,6-]",2540,–,–,–,3440,–
"Cc1ccc(-c2ccc(C(F)(F)F)cc2)cc1-c1c(O)c2ccc(Cl)cc2[nH]c1=O [9-6, 7-chloro-4-hydroxy-3-[4-methyl-4′-(trifluoromethy)biphenyl-3-yl]quinolin-2(1H)-one]",1280,–,> 20000,–,–,–
"Cc1cc(C)c(-c2c(O)c3ccc(Cl)cc3[nH]c2=O)cc1-c1ccc(Cl)cc1 [9-12, 7-chloro-3-(4′-chloro-4,6-dimethyl-biphenyl-3-yl)-4-hydroxyquinolin-2(1H)-one]",376,–,2090,–,–,–
"O=c1[nH]c2cc(Cl)ccc2c(O)c1-c1cc(-c2ccc(Cl)cc2)ccc1Cl [9-13, 7-chloro-3-(4,4′-dichlorobiphenyl-3-yl)-4-hydroxyquinolin-2(1H)-one]",191,–,3960,–,–,–
"Cc1ccc(-c2ccc(Cl)cc2)cc1C1C(=O)N(C)OC(C)(C)C1=O (centres unmarked) [11-1, 4-(4′-chloro-4-methylbiphenyl-3-yl)-2,6,6-trimethyl-1,2-oxazinane-3,5-dione]",–,–,–,19200,3330,–
